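These data come from cells grown in 96-well plates and exposed to compound for 48 hours at five concentrations. At the GI50, growth is halved. At the TGI there is no net growth.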 Where a SMILES comes first, the peptide text is derived from it. The star is where a group is joined. Boc = CC(C)(C)OC(=O)*
What was measured:
Assay in all cases: NCI anticancer screen, dose series, 48 h
[1] = system: SF-539 CNS
[2] = system: CCRF-CEM leukemia
[3] = system: UO-31 renal
[4] = system: RPMI-8226 leukemia
[5] = system: SNB-19 CNS
[6] = system: SK-MEL-28 melanoma
[7] = system: SNB-75 CNS
[8] = system: HL-60(TB) leukemia
[9] = system: RXF 393 renal
[10] = system: DU-145 prostate
[11] = system: HS 578T breast

Structure (SMILES) | TGI [1] | TGI [2] | TGI [3] | TGI [4] | TGI [5] | TGI [6] | TGI [7] | TGI [8] | TGI [9] | TGI [10] | TGI [11] | GI50 [5] | GI50 [7]
CCN1CCC(O)(c2ccc(Cl)cc2)C(C(=O)c2ccc(Cl)cc2)C1 (stereo not given) | > 100 µM | > 100 µM | > 100 µM | 64.2 µM | > 100 µM | > 100 µM | > 100 µM | > 100 µM | > 100 µM |  |  |  | 
O=C1c2ccc(O)c(O)c2C(=O)c2c(O)ccc(O)c21 | 49.2 µM | 56.7 µM | 42.8 µM | > 100 µM | 85.3 µM | > 100 µM |  |  | 55.2 µM |  |  |  | 
COc1ccc(SCc2cc(OCc3ccccc3)c(OCc3ccccc3)c(OCc3ccccc3)c2)cc1 | 3.45 µM | 3.49 µM | 3.18 µM |  | 3.19 µM | 3.52 µM | 3 µM | 3.44 µM |  | 3.13 µM |  |  | 
C=C(C)[C@@H]1CCC2=C[C@H](OC2=O)[C@@]2(C)C[C@@H]2C2=CC(C)=C(O2)[C@H]1O | > 75 µM | > 75 µM | > 75 µM |  | > 75 µM | > 75 µM | > 75 µM | > 75 µM | > 75 µM | > 75 µM |  |  | 
Nc1nc2c3nc(Nc4ccccc4)sc3nc(=O)n2c2sc(Nc3ccccc3)nc12 | > 100 µM | > 100 µM | > 100 µM | > 100 µM | > 100 µM | > 100 µM | > 100 µM | > 100 µM | > 100 µM |  |  |  | 
O=C(NNC(=S)NC1CCCCC1)c1csc(NC(=S)NC2CCCCC2)n1 | 15.6 µM | > 100 µM | 11.2 µM | 46.7 µM | 44.8 µM |  |  | > 100 µM |  | > 100 µM |  |  | 
CCN(CC)C(=O)C(C)n1cc(C)c(=O)[nH]c1=O (stereo not given) | > 100 µM | > 100 µM | > 100 µM | > 100 µM | > 100 µM | > 100 µM | 98.6 µM | > 100 µM | > 100 µM |  |  |  | 
C=C1C2C[C@@H]3O[C@H]4C[C@H]5O[C@@]6(C[C@@H]7O[C@]8(C[C@H](C)[C@@H]9O[C@@H]%10CC(CO)O[C@@H]%10C[C@@H]9O8)C[C@H](C)[C@@H]7O6)C[C@H]5O[C@H]4[C@H](C)[C@H]3OC(=O)C[C@H]3CC[C@@H]4OC5[C@H]6O[C@]7(CC[C@H]8CC(=C)[C@H](CC[C@@H](C[C@H]1C)O2)O8)CC6O[C@@H]5[C@@H](O7)[C@H]4O3 (stereo not given in full) |  | > 1 µM | > 1 µM | > 1 µM | > 1 µM |  | > 1 µM |  | > 1 µM |  | < 0.0001 µM |  | 
COc1ccc(-c2cc3[nH]nc(N)c3c(=O)o2)cc1 | > 100 µM | > 100 µM | > 100 µM | > 100 µM | > 100 µM | > 100 µM | > 100 µM | > 100 µM | > 100 µM |  |  |  | 
COC(=O)c1c2cccccc-2c(Cc2c3cccccc-3c(C(=O)OC)c2O)c1O | > 100 µM | > 100 µM | > 100 µM | > 100 µM | > 100 µM | > 100 µM | > 100 µM | > 100 µM |  |  |  |  | 
C[C@@H]1CC[C@@H]2[C@@H](C1)O[C@@H]([C@H](C)OCc1ccccc1)SC2(C)C | > 100 µM |  | 29.6 µM | 35.1 µM | 36.8 µM | 88.1 µM | 49.2 µM |  | 33.4 µM | > 100 µM |  |  | 
COC(=O)C(Cc1c[nH]c2ccccc12)NC(=O)C(Cc1c[nH]c2ccccc12)NC(=O)C(Cc1c[nH]c2ccccc12)NC(=O)C(Cc1c[nH]c2ccccc12)NC(=O)C(Cc1c[nH]c2ccccc12)NC(=O)C(Cc1c[nH]c2ccccc12)NC(=O)C(Cc1c[nH]c2ccccc12)NC(=O)C(Cc1c[nH]c2ccccc12)NC(=O)OC(C)(C)C (stereo not given) (Boc-WWWWWWWW-OMe; configuration not given here) |  | 96.2 µM | > 100 µM | > 100 µM | > 100 µM | > 100 µM | > 100 µM | 53.5 µM |  | > 100 µM |  |  | 
Cc1cc(S(=O)(=O)Nc2nc3ccccc3c(=O)n2N)c(S)cc1Cl | > 100 µM | > 100 µM |  | > 100 µM | 47.2 µM | > 100 µM | 92.7 µM | > 100 µM |  | > 100 µM |  | 15.7 µM | 13.3 µM
CC(=O)O[C@H]1C(=O)[C@@]2(C)C(C(OC(=O)c3ccccc3)C3[C@@H](O)C(OC(=O)[C@@H](O)[C@H](NC(=O)c4ccccc4)c4ccc(C(F)(F)F)cc4)C(C)=C1C3(C)C)[C@]1(OC(C)=O)CO[C@@H]1C[C@@H]2O (stereo not given in full) | > 25 µM | > 25 µM | > 25 µM | > 25 µM | > 25 µM | > 25 µM | > 25 µM | > 25 µM | > 25 µM |  |  |  | 
BrC(c1cccc2ccccc12)c1cccc2ccccc12 |  |  | > 100 µM | > 100 µM | > 100 µM | 44.6 µM | 29.1 µM | 51.4 µM | 27.9 µM | 26.4 µM |  |  | 
